Our source for the IC50 values is the Kinase Knowledgebase extract (Sharma et al. 2016).

Assay [1] concerns the target EGFR (UniProt P00533).
In assay [2] the target is EGFR (UniProt P00533). The source holds these as a separate data set.
In a further assay the target is EGFR (human) (UniProt P00533). Conditions: A431.
For the next assay, the target named is CDK2 (UniProt P24941).
In the next assay the target is EGFR (mouse) (UniProt P00533). Conditions: 3t3.

Chain of EGFR (P00533 whole entry, looked up): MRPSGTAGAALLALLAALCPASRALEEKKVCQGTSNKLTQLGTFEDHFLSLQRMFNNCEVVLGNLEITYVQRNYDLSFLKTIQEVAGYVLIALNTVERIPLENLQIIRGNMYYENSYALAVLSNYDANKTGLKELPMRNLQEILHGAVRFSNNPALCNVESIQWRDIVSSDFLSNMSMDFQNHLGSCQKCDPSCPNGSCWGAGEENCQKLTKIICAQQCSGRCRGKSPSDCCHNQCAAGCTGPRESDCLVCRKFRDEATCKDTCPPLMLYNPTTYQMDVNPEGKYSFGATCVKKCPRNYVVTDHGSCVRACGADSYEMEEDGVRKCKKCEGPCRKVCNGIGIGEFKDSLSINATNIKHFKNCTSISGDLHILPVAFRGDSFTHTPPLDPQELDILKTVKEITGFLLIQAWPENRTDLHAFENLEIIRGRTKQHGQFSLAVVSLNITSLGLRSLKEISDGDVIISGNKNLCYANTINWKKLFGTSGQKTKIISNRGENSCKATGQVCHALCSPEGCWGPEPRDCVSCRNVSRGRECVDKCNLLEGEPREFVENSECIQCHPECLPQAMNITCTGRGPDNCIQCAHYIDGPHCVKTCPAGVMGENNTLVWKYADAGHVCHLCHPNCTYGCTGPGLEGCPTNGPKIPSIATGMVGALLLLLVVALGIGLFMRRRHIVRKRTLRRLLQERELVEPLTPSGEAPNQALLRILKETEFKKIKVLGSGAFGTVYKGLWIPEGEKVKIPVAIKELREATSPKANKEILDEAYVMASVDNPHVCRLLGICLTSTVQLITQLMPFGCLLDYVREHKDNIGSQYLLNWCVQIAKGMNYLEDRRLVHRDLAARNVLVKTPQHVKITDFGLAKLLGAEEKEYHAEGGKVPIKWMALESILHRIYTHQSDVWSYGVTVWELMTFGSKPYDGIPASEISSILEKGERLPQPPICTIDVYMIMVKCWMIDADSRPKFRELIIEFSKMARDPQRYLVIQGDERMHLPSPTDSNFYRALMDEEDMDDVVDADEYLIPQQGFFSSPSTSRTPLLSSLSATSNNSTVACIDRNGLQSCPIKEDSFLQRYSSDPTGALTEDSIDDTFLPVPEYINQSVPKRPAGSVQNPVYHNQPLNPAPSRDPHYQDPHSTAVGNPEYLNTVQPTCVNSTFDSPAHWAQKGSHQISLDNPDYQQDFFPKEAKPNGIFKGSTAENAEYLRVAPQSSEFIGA
Chain of EGFR (human) (P00533 whole entry, looked up): as above

One may read the IC50 as the concentration at which inhibition is half-maximal. On to `COc1cccc(-c2cn(-c3ccc(CCN(C)CCO)cc3)c3ncncc23)c1`, for which the values for the half-maximal inhibitory concentration (IC50) against EGFR [1] and against EGFR [2] were 10 µM and 0.3 µM, respectively. For the compound `N#C/C(=C\c1ccc2c(c1)OCO2)c1ccccn1`, the IC50 against EGFR (human) worked out at 1 µM. `CC(C)=CCNc1ncnc2[nH]cnc12` registered a 50% inhibitory concentration (IC50) at CDK2 of 50 µM. Turning to `O=C1Nc2ccccc2/C1=C/c1ccc(-n2cccc2)cc1`, the IC50 with EGFR (mouse) is 17 µM. In other words, the double-digit micromolar range.
